In data set [1] the test system is rabbit aorta VSMC. The data set is described as follows: Cytotoxic activity of the Ad-RSV-TK/ganciclovir combination on smooth muscle cells in culture, by cell counting. It is filed as cell-based. The settings on record: ganciclovir alone or Ad-RSV-TK alone. On the procedure: The activity of the adenovirus containing the TK gene, prepared in Example 1, was checked on in vitro models of smooth muscle cells. To this end, smooth muscle cells isolated from rat and rabbit aorta were infected with the recombinant adenovirus Ad-RSV-tk and incubated in the presence of ganciclovir. The effect of the Ad-RSV-tk/ganciclovir combination on cell viability is then confirmed by the colorimetric test employing MTT, 3-(4,5-dimethylthiazol-2-yl)-2,5-diphenyl-tetrazolium bromide, according to the technique described by Mosman (J. Immunol. Meth. 65 (1983) 55), or more accurately by cell counting. Briefly, vascular smooth muscle cells (VSMC) are set up in culture by enzymatic digestion of NZW rabbit aorta according to a method adapted from Chamley et al. (Cell Tissue Res. 177: 503-522 1977). The cells are maintained in the presence of 20% of foetal calf serum and used for all the tests (see below) before the tenth passage. […]
In order to measure the cytotoxic activity of the Ad-RSV-TK/ganciclovir combination, rabbit aorta VSMC are incubated in the presence of the adenovirus diluted in culture medium (DMEM, 0.5% FCS). […] Four days after the addition of ganciclovir, the cells are counted (100% cell viability corresponding to cells not transduced with Ad-RSV-TK and not treated with ganciclovir).

For data set [2] the following is noted: patients treated for viral infection with a non-toxic dose; cited from earlier work.

On to `Nc1nc(O)c2ncn(COC(CO)CO)c2n1` [ganciclovir], for which the “cell death with a single agent” value in data set [1] is listed as “neither simple treatment with ganciclovir nor transduction with Ad-RSV-TK per se is associated with cell death”. Further, the plasma concentrations entry in data set [2] is “above 15 μM”.

The values above are taken from patent US6410011B1, “Gene therapy for restenosis using an adenoviral vector” (priority 1994, dated 2002).
